The test addresses IGP1 (IGP1/CORK1) ectodomain (Arabidopsis thaliana, UniProt F4I3K3). Kind of test: ITC. The conditions noted are these: purified ectodomain; ligand in LRR domain pocket, three subsites; N=1. It counts as binding.

Take `OC[C@H]1O[C@@H](O[C@H]2[C@H](O)[C@@H](O)[C@H](O[C@H]3[C@H](O)[C@@H](O)C(O)O[C@@H]3CO)O[C@@H]2CO)[C@H](O)[C@@H](O)[C@@H]1O` (stereo partly shown) [CEL3, cellotriose]: the dissociation constant (Kd) was ~1000 nM.

These data come from publication doi:10.1101/2025.09.28.679030v1 (biorxiv, 2025).
